The values that follow come from article PMC10415461 (Molecular Diversity, 2022).

The structures appear in SMILES notation. In brackets after ≈: the same amount, converted by molar mass. Read-outs that look alike come from different tables or passages of the source. A value given as a limit tells only on which side of the number the result lay.

Data set [1] concerns S. aureus (ATCC 6538). Description: Antibacterial MIC, standard agar cup diffusion method. The class given is cell-based, Staphylococcus aureus. Particulars: Staphylococcus aureus, ATCC6538, 37 °C, 24 h, read-out: MIC S. aureus (Gram-positive). How it is done:
(§1) The antibacterial and antifungal activities of compounds, ketone 1, 2a-j, and 5a-i were evaluated in vitro against S. aureus (ATCC 6538), P. aeruginosa (ATCC 10,145), E. coli (ATCC 8739), and C. albicans (ATCC 10,231). […] Standard strains of Staphylococcus aureus (ATCC 6538), Pseudomonas aeruginosa (ATCC 10,145), and Escherichia coli (ATCC 8739) were obtained from microbiological resource center, Faculty of Agriculture, Ain Shams University, Cairo, Egypt. All isolates were maintained at -70 °C in Trypticase Soya Broth (TSB, Becton, and Dickinson) with 10% glycerol. Prior to inoculation, all isolates were subcultured at 37 °C for 24 h on Trypticase Soya Agar (TSA, Becton, and Dickinson) and TSB, respectively.
(§2) The plates were rotated slowly to ensure uniform distribution of the microorganisms and then allowed to solidify on a flat surface. After solidification, four equidistant and circular wells of 10 mm diameter were carefully punched using a sterile cork bore. Twofold serial dilutions of the tested compounds using DMSO were performed. An equal volume of 100µL of each dilution was applied separately to each well in three replicates using a micropipette. All plates were incubated at 37 °C for 24 h. The inhibition zones were measured, and their average was calculated.

For data set [2], the system named is E. coli (ATCC 8739). The description is as above. The format is cell-based. The following applies: Escherichia coli, ATCC8739, 37 °C, 24 h, read-out: MIC E. coli (Gram-negative). The method, then: as §1, §2
The test system of data set [3] is P. aeruginosa (ATCC 10,145). Described as above. The format is cell-based. Particulars: Pseudomonas aeruginosa, ATCC 10145, 37 °C, 24 h, read-out: MIC P. aeruginosa (Gram-negative). The method, then:
as §1, §2

The subject of data set [4] is tested bacterial strains (Gram positive or Gram negative: S. aureus, P. aeruginosa, E. coli). Description: Antibacterial MIC range over the tested bacterial strains. The class given is cell-based. The following applies: range over Gram positive and Gram negative strains. The method, then:
. Standard strains of Staphylococcus aureus (ATCC 6538), Pseudomonas aeruginosa (ATCC 10,145), and Escherichia coli (ATCC 8739) were obtained from microbiological resource center, Faculty of Agriculture, Ain Shams University, Cairo, Egypt. All isolates were maintained at -70 °C in Trypticase Soya Broth (TSB, Becton, and Dickinson) with 10% glycerol. Prior to inoculation, all isolates were subcultured at 37 °C for 24 h on Trypticase Soya Agar (TSA, Becton, and Dickinson) and TSB, respectively.
as §2, with “calculated. The MIC was calculated by plotting the natural logarithm of the concentration of each dilution of the tested compounds against the square of zones of inhibition, and a regression line was drawn through the points then the antilogarithm of the intercept on the logarithm of concentration axis gave the MIC value.” for “calculated.”

The test system of data set [5] is C. albicans (ATCC 10,231). Description: Antifungal MIC, agar cup diffusion method. The format is cell-based, Candida albicans. Particulars: Sabouraud agar, 37 °C; for MIC: Candida albicans, ATCC 10,231, 24 h, read-out: MIC C. albicans (Fungi). The method, then: The antibacterial and antifungal activities of compounds, ketone 1, 2a-j, and 5a-i were evaluated in vitro against S. aureus (ATCC 6538), P. aeruginosa (ATCC 10,145), E. coli (ATCC 8739), and C. albicans (ATCC 10,231). […] The antifungal activity of compounds 1, 2a-j, and 5a-i and ketoconazole were determined according to the agar cup diffusion method at Deraya University, Faculty of Pharmacy, Department of Microbiology.
Fungal strains and culture conditions. […] Standard strain of Candida albicans (ATCC 10,231) was obtained from microbiological resource center, Faculty of Agriculture, Ain Shams University, Cairo, Egypt. The isolate was maintained at -70 °C in Trypticase Soya Broth (TSB, Becton, and Dickinson) with 10% glycerol. Prior to inoculation, the isolate was subcultured at 37 °C for 24 h on Trypticase Soya Agar (TSA, Becton, and Dickinson) and TSB, respectively.
as §2

The target of data set [6] is S. aureus DNA gyrase (Staphylococcus aureus, UniProt P0A0K8+P20831). Description: Staphylococcus aureus DNA gyrase supercoiling assay. The format is biochemical. The following applies: supercoiling of relaxed pBR322, 37 °C, 30 min; read-out: S. aureus DNA gyrase IC50 ± SD. The method, then: As antibacterial agents, fluoroquinolones act by targeting and inhibiting DNA gyrase (topo II) which is an essential enzyme involved in the DNA replication process.
Staphylococcus aureus DNA gyrase was incubated at 37 °C for 30 min in a total reaction volume of 30 μl containing 40 mM HEPES. KOH (pH 7.6), 10 mM magnesium acetate, 10 mM DTT, 2 mM ATP, 500 mM potassium glutamate, 0.05 mg/ml albumin and Relaxed pBR322. DNA gyrase supercoiling reactions catalyzed by S. aureus gyrase, Stop reaction by adding 30 μL of STEB and 30 μL of chloroform/isoamyl alcohol (v:v, 24:1),and then Vortex briefly ~ 5 secs and centrifuge for 1 min. after which 20 µL of this was loaded on a 1% agarose gel that was then run at ~ 75 V for approximately 2 h. The gel was stained by (0.5 mg/L) ethidium bromide in water. Fluorescent images were taken at a wavelength of 300 nm on a UV transilluminator imaging system. The fluorescence intensity of the supercoiled plasmid reaction product was quantitated using ImagQuant software (Molecular Dynamics).

A short description of data set [7]: Solubility determination in phosphate buffer. The class given is physicochemical. Particulars: aqueous buffer, thermodynamic from solid. How it is done: A sample of drug was accurately weighed and dissolved in 100 ml of distilled water to prepare 100 mcg/ml stock solutions. Appropriate dilution of the stock solution with phosphate buffer pH 6.8 and 7.8 was then made to prepare a working solution of 40mcg/ml.
After determination of λ max of drug, a calibration curve was constructed by preparing solutions containing different concentrations of (1–5 mcg/ml) from stock solution after appropriate dilution with phosphate buffer pH 6.8. The UV absorbance of the prepared sample solutions were measured at the predetermined λ max using phosphate buffer pH 6.8 as a blank.
Aqueous solubility of the complexes was measured as a function of pH. An excess of each derivative was placed into suitable stoppered containers. […] The samples were immersed in a water bath thermostatized at 37 ± 1^◦C and 100 rpm and periodically shaken for 48 h. Once the equilibrium was reached, the pH of the supernatant was regarded.

Data set [8] can be described thus: physchem. Particulars: pH 7.8. How it is done:
The n-octanol/water apparent partition coefficient at the isoelectric point (or distribution constant) was measured by using the traditional shake-flask technique. The pH of the aqueous buffer was first adjusted to isoelectric point of the compound. The n-octanol and aqueous phases were then mutually saturated before the measurement. […] The samples were agitated for 5h at water bath shaker thermostatized at 25 ± 1^◦C and 100 rpm. The concentration of the solute was determined in the aqueous and organic phases at the isoelectric point by UV spectroscopy the log p value was calculated as follows: […].

The mark [9] stands for this setting: phosphate buffer pH 6.8, 37 °C, read-out: Solubility pH 6.8.
Setting [10] is: phosphate buffer pH 7.8, 37 °C, read-out: Solubility pH 7.8.

Sequence of S. aureus DNA gyrase (P20831 whole entry): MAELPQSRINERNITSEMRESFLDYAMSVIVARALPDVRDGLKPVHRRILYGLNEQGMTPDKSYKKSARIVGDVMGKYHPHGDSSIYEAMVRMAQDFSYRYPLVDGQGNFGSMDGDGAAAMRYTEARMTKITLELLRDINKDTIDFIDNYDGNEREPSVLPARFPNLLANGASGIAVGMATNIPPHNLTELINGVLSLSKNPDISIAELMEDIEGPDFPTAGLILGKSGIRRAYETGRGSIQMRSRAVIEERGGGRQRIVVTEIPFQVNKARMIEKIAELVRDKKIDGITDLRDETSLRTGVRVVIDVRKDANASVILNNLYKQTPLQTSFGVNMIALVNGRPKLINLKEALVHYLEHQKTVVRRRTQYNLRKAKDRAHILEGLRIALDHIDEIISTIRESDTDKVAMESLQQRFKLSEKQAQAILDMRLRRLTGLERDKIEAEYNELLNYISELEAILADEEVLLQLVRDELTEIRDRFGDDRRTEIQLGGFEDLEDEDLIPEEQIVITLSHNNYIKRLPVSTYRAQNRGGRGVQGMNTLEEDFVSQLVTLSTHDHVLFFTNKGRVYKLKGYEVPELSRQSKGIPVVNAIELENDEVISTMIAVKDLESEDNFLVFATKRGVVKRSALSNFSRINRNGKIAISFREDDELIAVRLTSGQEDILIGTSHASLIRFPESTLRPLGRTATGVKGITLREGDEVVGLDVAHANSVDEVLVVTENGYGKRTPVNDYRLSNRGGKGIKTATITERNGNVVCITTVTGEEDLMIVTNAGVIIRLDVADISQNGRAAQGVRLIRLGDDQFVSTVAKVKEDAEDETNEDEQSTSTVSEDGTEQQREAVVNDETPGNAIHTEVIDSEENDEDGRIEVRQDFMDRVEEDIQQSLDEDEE
Sequence of S. aureus DNA gyrase (P0A0K8 whole entry): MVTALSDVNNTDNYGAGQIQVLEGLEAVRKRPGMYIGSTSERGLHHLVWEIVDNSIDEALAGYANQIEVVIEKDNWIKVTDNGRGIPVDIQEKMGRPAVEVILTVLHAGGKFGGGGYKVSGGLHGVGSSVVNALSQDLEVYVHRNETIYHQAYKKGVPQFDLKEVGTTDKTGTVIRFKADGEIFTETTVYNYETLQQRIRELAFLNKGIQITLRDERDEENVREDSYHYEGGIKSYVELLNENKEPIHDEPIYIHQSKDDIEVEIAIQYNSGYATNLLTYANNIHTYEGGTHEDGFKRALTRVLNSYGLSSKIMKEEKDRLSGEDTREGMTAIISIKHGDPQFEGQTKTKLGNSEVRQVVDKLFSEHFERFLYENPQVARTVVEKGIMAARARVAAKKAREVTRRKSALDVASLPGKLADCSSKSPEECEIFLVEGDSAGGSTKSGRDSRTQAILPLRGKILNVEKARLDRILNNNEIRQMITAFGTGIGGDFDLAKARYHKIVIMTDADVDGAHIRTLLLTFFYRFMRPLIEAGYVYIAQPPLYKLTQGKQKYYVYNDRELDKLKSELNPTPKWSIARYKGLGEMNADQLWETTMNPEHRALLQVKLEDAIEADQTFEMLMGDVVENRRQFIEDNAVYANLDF

`O=C(O)c1cn(C2CC2)c2cc(N3CCNCC3)c(F)cc2c1=O` [Ciprofloxacin, reference compound]: the MIC (as a rule, the lowest concentration that inhibits growth of the organism) was 3.25 µg/mL (≈ 9.81 µM) in [1], 0.15 µg/mL (≈ 0.453 µM) in [2] and 0.22 µg/mL (≈ 0.664 µM) in data set [3]. Also, the “MIC range against the tested bacterial strains” value (from here on “MIC range”) in [4] was 0.15 to 3.25 µg/mL.

Consider `O=C(/C=C/c1cccc(Cl)c1)c1ccc(NC(=O)N2CCN(c3cc4c(cc3F)c(=O)c(C(=O)O)cn4C3CC3)CC2)cc1` [Compound 2b], for which the MIC in [1] worked out at 0.06 µg/mL (≈ 0.0976 µM); in data set [2], 0.18 µg/mL (≈ 0.293 µM); in data set [3], 0.64 µg/mL (≈ 1.04 µM); in data set [5], 15.2 µg/mL (≈ 24.8 µM). In data set [6], the 50% inhibitory concentration (IC50) (commonly the concentration at which inhibition is half-maximal) is 231 ± 10 nM. The solubility (commonly how much of the substance goes into solution per volume) at 48 h in [7] (setting [9]) stood at 160 µg/mL (≈ 260 µM); in data set [7] (setting [10]) it was 180 µg/mL (≈ 293 µM). Further, in [8], the logD (as a rule, lipophilicity at a set pH, counting ionised and neutral species) amounted to 0.31. For the same molecule, the “MIC range” value in data set [4] is 0.06 to 1.53 µg/mL.

Consider `O=C(/C=C/c1ccc(Cl)cc1)c1ccc(NC(=O)N2CCN(c3cc4c(cc3F)c(=O)c(C(=O)O)cn4C3CC3)CC2)cc1` [Compound 2c], for which the MIC in data set [1] was 0.67 µg/mL (≈ 1.09 µM); in data set [2] it was 0.34 µg/mL (≈ 0.553 µM); in data set [3] it was 1.03 µg/mL (≈ 1.67 µM); in data set [5] it was 2.03 to 3.89 µg/mL (≈ 3.3 to 6.32 µM). Moreover, in data set [5] (24 h), the “MIC C. albicans (Fungi)” value is 3.89 µg/mL (≈ 6.32 µM). Moreover, in data set [6], the IC50 came out at 3000 ± 160 nM. Also, the solubility at 48 h in [7] (setting [9]) is 130 µg/mL (≈ 211 µM); in data set [7] (setting [10]), 150 µg/mL (≈ 244 µM). This molecule returned a logD in data set [8] of 0.07. In addition, the “MIC range” value in [4] was in the range of 0.06 to 1.53 µg/mL.

Consider `N#Cc1c(-c2ccccc2)nc(SCC(=O)N2CCN(c3cc4c(cc3F)c(=O)c(C(=O)O)cn4C3CC3)CC2)[nH]c1=O` [Compound 5a, 7-(4-(2-((5-Cyano-6-oxo-4-phenyl-1,6-dihydropyrimidin-2-yl)thio)acetyl)piperazin-1-yl)-1-cyclopropyl-6-fluoro-4-oxo-1,4-dihydroquinoline-3-carboxylic acid], for which the melting point (in general, the temperature, or range, at which the solid turns liquid) lay within 237 to 240 °C. The MIC in data set [1] came to 0.36 µg/mL (≈ 0.599 µM). Moreover, the MIC in [2] stood at 0.91 µg/mL (≈ 1.52 µM). Further, the minimal inhibitory concentration (MIC) in data set [3] was 1.53 µg/mL (≈ 2.55 µM). Besides, in [5], the MIC came out at 6.23 µg/mL (≈ 10.4 µM). Moreover, the IC50 in data set [6] came to 4550 ± 240 nM. Further, the “MIC range” value in data set [4] fell in the range of 0.06 to 1.53 µg/mL.

The molecule `N#Cc1c(-c2cccc(Cl)c2)nc(SCC(=O)N2CCN(c3cc4c(cc3F)c(=O)c(C(=O)O)cn4C3CC3)CC2)[nH]c1=O` [Compound 5b, 7-(4-(2-((4-(3-Chlorophenyl)-5-cyano-6-oxo-1,6-dihydropyrimidin-2-yl)thio)acetyl)piperazin-1-yl)-1-cyclopropyl-6-fluoro-4-oxo-1,4-dihydroquinoline-3-carboxylic acid] gave a melting point of 248 to 251 °C. In addition, the MIC in [1] amounted to 0.7 µg/mL (≈ 1.1 µM). Besides, the MIC in data set [2] stood at 0.12 µg/mL (≈ 0.189 µM). In data set [3], the MIC was found to be 0.19 µg/mL (≈ 0.299 µM). The MIC in data set [5] was more than 100 µg/mL. Also, in data set [6], the IC50 came to 1270 ± 70 nM. Moreover, in [4], the “MIC range” value lay in the range of 0.06 to 1.53 µg/mL.

`Cc1ccc(-c2nc(SCC(=O)N3CCN(c4cc5c(cc4F)c(=O)c(C(=O)O)cn5C4CC4)CC3)[nH]c(=O)c2C#N)cc1` [Compound 5f]: the melting point lay in the range of 264 to 267 °C. Moreover, in data set [1], the MIC was found to be 4.79 µg/mL (≈ 7.79 µM). Besides, in data set [2], the MIC turned out to be 3.89 µg/mL (≈ 6.33 µM). Besides, in data set [3], the MIC amounted to 2.95 µg/mL (≈ 4.8 µM). The MIC in data set [5] was more than 100 µg/mL. Further, in [6], the IC50 was 3500 ± 190 nM.

`COc1ccc(-c2nc(SCC(=O)N3CCN(c4cc5c(cc4F)c(=O)c(C(=O)O)cn5C4CC4)CC3)[nH]c(=O)c2C#N)cc1` [Compound 5g, 7-(4-(2-((5-Cyano-4-(4-methoxyphenyl)-6-oxo-1,6-dihydropyrimidin-2-yl)thio)acetyl)piperazin-1-yl)-1-cyclopropyl-6-fluoro-4-oxo-1,4-dihydroquinoline-3-carboxylic acid] returned a melting point of 239 to 242 °C. Also, the MIC in data set [1] worked out at 0.28 µg/mL (≈ 0.444 µM). In [2], the MIC worked out at 14.2 µg/mL (≈ 22.6 µM). The MIC in data set [3] was 23.1 µg/mL (≈ 36.7 µM). In addition, the MIC in data set [5] is more than 100 µg/mL. In data set [6], the IC50 is 7590 ± 400 nM. Moreover, the solubility at 48 h in data set [7] (setting [9]) came out at 740 µg/mL (≈ 1170 µM). Moreover, the solubility at 48 h in [7] (setting [10]) is 900 µg/mL (≈ 1430 µM). The “Lipophilicity (log p)” value in [8] is given as “− 0.09”.

Consider `COc1ccc(-c2nc(SCC(=O)N3CCN(c4cc5c(cc4F)c(=O)c(C(=O)O)cn5C4CC4)CC3)[nH]c(=O)c2C#N)cc1OC` [Compound 5h, 7-(4-(2-((5-Cyano-4-(3,4-dimethoxyphenyl)-6-oxo-1,6-dihydropyrimidin-2-yl)thio)acetyl)piperazin-1-yl)-1-cyclopropyl-6-fluoro-4-oxo-1,4-dihydroquinoline-3-carboxylic acid], for which the melting point is 266 to 269 °C. Further, the MIC in data set [1] is 0.34 µg/mL (≈ 0.515 µM). Moreover, the MIC in [2] was 0.21 µg/mL (≈ 0.318 µM). Further, the MIC in [3] worked out at 0.49 µg/mL (≈ 0.742 µM). For the same molecule, the MIC in data set [5] was 28.7 µg/mL (≈ 43.5 µM). In addition, the IC50 in data set [6] is 1460 ± 80 nM. Moreover, in [4], the “MIC range” value lay within 0.06 to 1.53 µg/mL.
